The target of the experiment is Acyl-homoserine lactone acylase PvdQ [A190E,F674L] (Pseudomonas aeruginosa, UniProt Q9I194, A190E/F674L). The experiment can be described thus: PvdQ IC50 Assay. The protocol:
The assay was performed with nine compound concentrations that ranged from 3 nM to 19.5 µM with PvdQ concentration of 20 nM. The positive control, isopropyl dodecylfluorophosphonate (IDFP), was added in 24 selective wells to a final concentration of 200 µM. The assay plates were initially read at time = 0 and then incubated for 60 min at RT. The plates were read again at time = 60 min.
Chain of Acyl-homoserine lactone acylase PvdQ [A190E,F674L] (Q9I194 whole entry, looked up, stated change not applied): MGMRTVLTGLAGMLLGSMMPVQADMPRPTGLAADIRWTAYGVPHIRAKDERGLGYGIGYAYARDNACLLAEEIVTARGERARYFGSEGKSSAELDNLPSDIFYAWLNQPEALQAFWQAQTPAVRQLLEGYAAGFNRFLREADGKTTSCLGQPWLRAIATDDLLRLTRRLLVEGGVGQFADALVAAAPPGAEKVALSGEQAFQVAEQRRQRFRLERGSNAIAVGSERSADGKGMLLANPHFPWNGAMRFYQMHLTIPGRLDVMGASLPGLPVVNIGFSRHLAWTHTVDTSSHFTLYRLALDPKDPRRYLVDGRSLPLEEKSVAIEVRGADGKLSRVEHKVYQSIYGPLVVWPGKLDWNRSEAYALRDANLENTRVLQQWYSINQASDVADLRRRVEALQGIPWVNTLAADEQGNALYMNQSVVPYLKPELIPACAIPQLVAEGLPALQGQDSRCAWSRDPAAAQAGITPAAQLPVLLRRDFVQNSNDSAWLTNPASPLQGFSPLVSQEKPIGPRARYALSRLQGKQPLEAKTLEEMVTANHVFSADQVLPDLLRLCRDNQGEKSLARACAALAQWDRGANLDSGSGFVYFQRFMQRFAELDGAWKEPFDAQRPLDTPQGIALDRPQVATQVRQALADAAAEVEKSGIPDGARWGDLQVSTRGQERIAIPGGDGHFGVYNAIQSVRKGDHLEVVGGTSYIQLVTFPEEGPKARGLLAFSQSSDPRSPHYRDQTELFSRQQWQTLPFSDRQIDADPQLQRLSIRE
A word on the IC50: it is the midpoint of a concentration-inhibition curve. Read a low IC50 as higher potency. In the case of `N#CC(c1ccc(Cl)cc1Cl)c1ncccc1Cl` (stereo not given) [2-(3-Chloropyridin-2-yl)-2-(2,4-dichlorophenyl) acetonitrile (35)], the IC50 came out at 210 nM.
For the compound `N#CC(c1ccc(C(F)(F)F)cc1)c1cccc(C(F)(F)F)n1` (stereo not given) [2-(4-(Trifluoromethyl)phenyl)-2-(6-(trifluoromethyl)pyridin-2-yl)acetonitrile (29)], the half-inhibitory concentration (IC50) worked out at 140 nM.
Then `CCCCC(C#N)c1ccc(C(F)(F)F)cc1` (stereo not given) [2-(4-(Trifluoromethyl)phenyl)hexanenitrile (48)], with > 10000 nM.
Take `N#CC(c1ccc(C(F)(F)F)cn1)c1ccc(Cl)cc1F` (stereo not given) [2-(4-Chloro-2-fluorophenyl)-2-(5-(trifluoromethyl)-pyridin-2-yl)acetonitrile (31)]: inhibition was half-maximal at 10 nM (IC50).
Then `N#CC(c1ccc(C(F)(F)F)c(Cl)n1)c1ccc(Cl)cc1F` (stereo not given) [2-(4-Chloro-2-fluorophenyl)-2-(6-chloro-5-(trifluoro-methyl)pyridin-2-yl)acetonitrile (32)], with 630 nM.
In the case of `N#CC(c1cccc(Cl)n1)c1ccc(Cl)cc1F` (stereo not given) [2-(4-Chloro-2-fluorophenyl)-2-(6-chloropyridin-2-yl) acetonitrile (13)], the IC50 came to 60 nM.
Then `N#CC(c1ccc(Cl)cc1)c1ncccc1Cl` (stereo not given) [2-(4-Chlorophenyl)-2-(3-chloropyridin-2-yl) acetonitrile (15)], with 10 nM; and `N#CC(c1ccc(Cl)cc1)c1ccc(C(F)(F)F)cn1` (stereo not given) [2-(4-Chlorophenyl)-2-(5-(trifluoromethyl)pyridin-2-yl)acetonitrile (20)], with 2400 nM; and `CC(C#N)(c1ccc(Cl)cc1)c1ccc(C(F)(F)F)cn1` (stereo not given) [2-(4-Chlorophenyl)-2-(5-(trifluoromethyl)pyridin-2-yl)propanenitrile (54)], with 1100 nM.
As for `N#CC(c1ccc(Cl)cc1)c1ccc(Cl)cn1` (stereo not given) [2-(4-Chlorophenyl)-2-(5-chloropyridin-2-yl) acetonitrile (14)], inhibition was half-maximal at 130 nM (IC50). This IC50 is about 8.5-fold lower than that of the compound before.
Under `N#CC(c1ccc(Cl)cc1)c1cccc(C(F)(F)F)n1` (stereo not given) [2-(4-Chlorophenyl)-2-(6-(trifluoromethyl)pyridin-2-yl)acetonitrile (16)] stands 10 nM; under `N#CC(c1ccc(Cl)cc1)c1ccccn1` (stereo not given) [2-(4-Chlorophenyl)-2-(pyridin-2-yl)acetonitrile (24)], 270 nM; under `N#CC(CC1CC1)c1ccc(Cl)cc1` (stereo not given) [2-(4-Chlorophenyl)-3-cyclopropylpropanenitrile (40)], 540 nM.
As for `COCCOCCC(C#N)c1ccc(Cl)cc1` (stereo not given) [2-(4-Chlorophenyl)-4-(2-methoxyethoxy)butanenitrile (42)], half-maximal inhibition (IC50) was put at 4700 nM.
As to `COCCC(C#N)c1ccc(Cl)cc1` (stereo not given) [2-(4-Chlorophenyl)-4-methoxybutanenitrile (41)], the midpoint of inhibition, the IC50, lay at 4800 nM.
For `CC(C)CC(C#N)c1ccc(Cl)cc1` (stereo not given) [2-(4-Chlorophenyl)-4-methylpentanenitrile (39)], the IC50 was found to be 290 nM. This IC50 lies about 17-fold lower than the previous one.
As to `CCCCC(C#N)c1ccc(Cl)cc1` (stereo not given) [2-(4-Chlorophenyl)hexanenitrile (38)], the concentration for half-maximal inhibition (IC50) amounted to 1400 nM.
In turn, `CCCC(C#N)c1ccc(Cl)cc1` (stereo not given) [2-(4-Chlorophenyl)pentanenitrile (37)] gave an IC50 of 5900 nM.
In turn, `N#CC(c1ccc(F)cc1)c1cccc(C(F)(F)F)n1` (stereo not given) [2-(4-Fluorophenyl)-2-(6-(trifluoromethyl)pyridin-2-yl) acetonitrile (4)] came in with a 50% inhibitory concentration (IC50) of 20 nM.
`COCCC(C#N)c1ccc(F)cc1` (stereo not given) [2-(4-Fluorophenyl)-4-methoxybutanenitrile (47)] returned an IC50 of 290 nM.
The compound `CCCCC(C#N)c1ccc(F)cc1` (stereo not given) [2-(4-Fluorophenyl)hexanenitrile (46)] gave an IC50 of 320 nM.
Take `CCCCC(C#N)c1ccc(Cl)cn1` (stereo not given) [2-(5-Chloropyridin-2-yl)hexanenitrile (49)]: half-maximal inhibition (IC50) was put at 3800 nM.
In turn, `N#CC(c1ccc(C(F)(F)F)c(Cl)n1)c1ccc(Cl)cc1Cl` (stereo not given) [2-(6-Chloro-5-(trifluoromethyl)pyridin-2-yl)-2-(2,4-dichlorophenyl)acetonitrile (36)] displayed an IC50 of 970 nM. Against the preceding compound, the IC50 is about 3.9-fold lower.
`N#CC(c1ccc(C(F)(F)F)cc1)c1ccc(C(F)(F)F)c(Cl)n1` (stereo not given) [2-(6-Chloro-5-(trifluoromethyl)pyridin-2-yl)-2-(4-(trifluoromethyl)phenyl)acetonitrile (28)] returned a concentration for half-maximal inhibition (IC50) of 2300 nM.
Under `N#CC(c1ccc(Cl)cc1)c1ccc(C(F)(F)F)c(Cl)n1` (stereo not given) [2-(6-Chloro-5-(trifluoromethyl)pyridin-2-yl)-2-(4-chlorophenyl)acetonitrile (21)] stands 620 nM.
Consider `N#CC(c1ccc(F)cc1)c1ccc(C(F)(F)F)c(Cl)n1` (stereo not given) [2-(6-Chloro-5-(trifluoromethyl)pyridin-2-yl)-2-(4-fluorophenyl)acetonitrile (27)], for which 740 nM corresponded to half-maximal inhibition (IC50).
The compound `N#CC(c1cccc(Cl)n1)c1ccc(Cl)cc1Cl` (stereo not given) [2-(6-Chloropyridin-2-yl)-2-(2,4-dichlorophenyl) acetonitrile (12)] gave an IC50 of 250 nM.
Regarding `N#CC(c1cccc(Cl)n1)c1ccccc1OC(F)(F)F` (stereo not given) [2-(6-Chloropyridin-2-yl)-2-(2-(trifluoromethoxy)-phenyl)acetonitrile (11)], the midpoint of inhibition, the IC50, lay at 1700 nM.
`N#CC(c1ccc(C(F)(F)F)cc1)c1cccc(Cl)n1` (stereo not given) [2-(6-Chloropyridin-2-yl)-2-(4-(trifluoromethyl)phenyl)acetonitrile (10)] gave a concentration for half-maximal inhibition (IC50) of 390 nM. Against the preceding compound, the IC50 is about 4.4-fold lower.
`CCCCC(C#N)c1ccccn1` (stereo not given) [2-(Pyridin-2-yl)hexanenitrile (51)]: the half-maximal inhibitory concentration (IC50) is 8400 nM.
With `Clc1ccc(C(c2cccc(Cl)n2)c2nnn[nH]2)cc1` (stereo not given) [2-Chloro-6-((4-chlorophenyl)(1H-tetrazol-5-yl)-methyl)pyridine (52)], the IC50 was found to be 3400 nM.
On to `CCCCC(c1ccc(Cl)cc1)c1nnn[nH]1` (stereo not given) [5-(1-(4-Chlorophenyl)pentyl)-1H-tetrazole (53)], for which 6700 nM corresponded to half-maximal inhibition (IC50).
In turn, `N#Cc1cccc(C(C#N)c2ccc(Cl)cc2F)n1` (stereo not given) [6-((4-Chloro-2-fluorophenyl)(cyano)methyl) picolinonitrile (30)] displayed a half-maximal inhibitory concentration (IC50) of 110 nM.
As for `Cc1ccc(C(C#N)c2ccc(Cl)cc2)nc1C#N` (stereo not given) [6-((4-Chlorophenyl)(cyano)methyl)-3-methyl picolinonitrile (22)], it took 180 nM to reach half-maximal inhibition (IC50).
`N#Cc1ccc(C(C#N)c2ccc(Cl)cc2)nc1` (stereo not given) [6-((4-Chlorophenyl)(cyano)methyl)nicotinonitrile (23)] yielded a half-maximal inhibitory concentration (IC50) of 2500 nM. Compared with the last compound, the IC50 is about 14-fold higher.
Consider `N#Cc1cccc(C(C#N)c2ccc(Cl)cc2)n1` (stereo not given) [6-((4-Chlorophenyl)(cyano)methyl)picolinonitrile (17)], for which the half-inhibitory concentration (IC50) was 180 nM.
Under `N#Cc1ccc(C(C#N)c2ccc(Cl)cc2Cl)nc1` (stereo not given) [6-(Cyano(2,4-dichlorophenyl)methyl)nicotinonitrile (34)] stands 1800 nM; under `N#Cc1cccc(C(C#N)c2ccc(Cl)cc2Cl)n1` (stereo not given) [6-(Cyano(2,4-dichlorophenyl)methyl)picolinonitrile (33)], 290 nM.
The compound `N#Cc1cccc(C(C#N)c2ccc(F)cc2)n1` (stereo not given) [6-(Cyano(4-fluorophenyl)methyl)picolinonitrile (25)] came in with an IC50 of 130 nM.
Under `N#CC1c2ccc(Cl)cc2CCc2cccnc21` (stereo not given) [8-Chloro-6,11-dihydro-5H-benzo[5,6]cyclohepta[1,2-b]pyridine-11-carbonitrile (55)] stands 9100 nM.

The values are drawn from BindingDB's records for doi:10.1021/cb5001586 (The Broad Institute , Cambridge, Massachusetts 02142, …, 2014).
